In US20250000836A1, “PARTICLE DELIVERY OF THYROID HORMONE RECEPTOR AGONISTS AND ANTAGONISTS” (CYTA THERAPEUTICS, INC., priority 2021, published 2025):
Marks after values point to notes of the source that are not given here.

Assays:
[1] = tested on: Diet Induced Obese (DIO) mice; test: In vivo insulin resistance analysis (HOMA-IR) in DIO mice; settings: 24 weeks HFD then 5-week dosing at 5, 10 or 20 μg/kg
Experimental: DIO mice were used to study the in vivo effects of CYTA-001 on insulin resistance within the context of obesity and diet. Homeostatic model assessment for insulin resistance (HOMA-IR) levels were measured in DIO mice that were conditioned on high fat diets (HFD) for 24 weeks prior to a 5-week dosing regimen. The HFD DIO mice were treated with either the non-liver targeted TRβ agonist, Axitirome (CGS26214), also referred to as “drug” in FIG. 11, or CYTA-001 at 5 μg/kg, 10 μg/kg, or 20 μg/kg dosages for 5 weeks.

[2] = tested on: Diet Induced Obese (DIO) mice; test: In vivo serum T4 and TSH analysis in Diet Induced Obese mice; settings: 5, 10 or 20 μg/kg, 12-week and 24-week timepoints, compared to lean control and high fat control
Experimental: A Diet Induced Obese (DIO) mouse model was used to study the in vivo effects of the CGS26214-encapsulated nanogels with anionic group-modified backbone (CGS-ANG), referred to as “CYTA-001,” on serum T4 and TSH within the context of obesity.
The DIO mice were treated with either the non-liver targeted TRβ agonist, Axitirome (CGS26214), also referred to as “drug” in FIGS. 10A and B, or CYTA-001 at 5 μg/kg, 10 μg/kg, or 20 μg/kg for 12 weeks or 24 weeks. Treated DIO mice serum T4/TSH levels were compared to a lean control (LC control), or low fat diet, and to a high fat control (HF control). After each designated treatment period, all the mice were sacrificed unfasted by cardiac puncture after gradual-fill CO2 asphyxiation. Terminal blood samples were collected in SST-SERUM separator tubes for serum collection.
Serum was analyzed for thyroid hormone T4 and thyroid stimulating hormone (TSH) levels. […] This is an unexpected result as thyromimetics have not been observed for weight loss without some level of peripheral activation of the TRα or TRβ receptor. Peripheral activation of the TRα receptor is generally toxic and ideally avoided.

[3] = tested on: HFD-induced NASH (fully developed NASH model), male C57BL/6J mice; test: Serum biochemical analysis, fully developed NASH model (24 week HFD prior to dosing); format: in vivo; settings: 5 weeks, mean ± SE
Experimental: (§1) All animal care and experimental procedures were approved by the Ethical Committee on Animal Care and Experimentation. Male C57BL/6J mice were purchased at 6 weeks of age from the Jackson Laboratory and housed in a controlled environment (12 h light/dark cycle, 21±2° C., humidity 50±10%). Mice were permitted ad libitum access to water and either 10 kcal % fat control diet (CD, Cat #D09100304, Research Diets) or 40 kcal % fat, 20 kcal % fructose and 2% cholesterol high fat diet (HFD, Cat #D09100310, Research Diets).
(§2) To test the therapeutic effect of CGS-ANG in treating HFD-induced NASH, mice were fed HFD or LFD for 24 weeks (fully developed NASH model) and then randomly assigned to 9 groups with 8-10 mice per group before the medical treatments: (1), CD: mice fed the CD diet and treated with vehicle; (2), HFD: mice fed the HFD diet and treated with vehicle; (3), CGS-D1: mice fed the HFD diet and treated with 5 μg/kg of CGS26214; (4), CGS-D2: mice fed the HFD diet and treated with 10 μg/kg of CGS26214; (5) CGS-D3: mice fed the HFD diet and treated with 20 μg/kg of CGS 26214; (6) CNG-D1: mice fed the HFD diet and treated with CGS-ANG loaded with CGS26214 at a dose of 5 μg/kg; (7) CNG-D2: mice fed the HFD diet and treated with CGS-ANG loaded with CGS 26214 at a dose of 10 μg/kg; (8) CNG-D3: mice fed the HFD diet and treated with CGS-ANG loaded with CGS 26214 at a dose of 20 μg/kg; (9) BNG: mice fed the HFD diet and treated with BNG with the same dose of nanogels as group (8). All the treatments were injected intraperitoneally at the doses indicated once per day before the dark cycle of the day for 5 weeks.
(§3) After each designated treatment period, all the mice were sacrificed unfasted by cardiac puncture after gradual-fill CO2 asphyxiation. Terminal blood samples were collected in SST-SERUM separator tubes for serum collection. Epididymal fat pads (EFP), liver and hearts were removed and weighed. Data (weight gain, liver weight, heart weight, epididymal fat pad weight) from the 12 week and 24 week study are shown in FIGS. 3A-3D and 4A-4D, respectively. Portions of livers and hearts were collected and stored at −80° C. or fixed in 4% paraformaldehyde solution (Sigma-Aldrich, St. Louis, MO) for further analysis. Visual images of mice from each treatment groups at 24 weeks is shown in FIG. 5 while images of mice liver from each treatment group at 24 weeks is shown in FIG. 6.
(§4) Analysis of serum cholesterol (TC), high-density lipoprotein cholesterol (HDL-C), low-density lipoprotein cholesterol (LDL-C), triglycerides (TG), serum alanine aminotransferase (ALT) and aspartate aminotransferase (AST) was performed at Indexx BioAnalytics (North Grafton, MA) Plasma glucose, insulin, amyloid A (SAA), E-selectin and monocyte chemoattractant protein-1 (MCP-1) were quantified using commercial kits. Data from the 12 week and 24 week study are shown in Table 2 and Table 3, respectively.

[4] = tested on: HFD-induced NASH, mouse liver; test: Liver histology (H&E, Masson's trichrome), 24 week study; format: in vivo, mice; settings: groups CGS-2 / CNG-2 (10 μg/kg CGS26214 i.p. once per day, 5 weeks)
Experimental: as §2, with “weeks. […]” for “weeks.”

[5] = tested on: HFD-induced NASH (mild NASH model), male C57BL/6J mice; test: Serum biochemical analysis, mild NASH model (12 week HFD prior to dosing); format: in vivo; settings: for ALT / AST / Cholesterol / HDL Cholesterol / LDL Cholesterol / Triglycerides: serum, 12 week HFD prior to dosing, 5 weeks, mean ± SE
Experimental: as §1
To test the preventative effect of CGS-ANG in treating HFD-induced NASH, mice were fed high fat diet (HFD) or low fat diet (CD) for 12 weeks (mild NASH model) and then randomly assigned to 9 groups with 8-10 mice per group before treatment: (1), CD: mice fed the CD diet and treated with vehicle; (2), HFD: mice fed the HFD diet and treated with vehicle; (3), CGS-D1: mice fed the HFD diet and treated with 10 μg/kg of CGS26214 (suspended in saline with 1% DMSO); (4), CGS-D2: mice fed the HFD diet and treated with 20 μg/kg of CGS26214; (5) CGS-D3: mice fed the HFD diet and treated with 60 μg/kg of CGS26214; (6) CNG-D1: mice fed the HFD diet and treated with CGS-ANG loaded with CGS26214 at a dose of 10 μg/kg; (7) CNG-D2: mice fed the HFD diet and treated with CGS-ANG loaded with CGS26214 at a dose of 20 μg/kg; (8) CNG-D3: mice fed the HFD diet and treated with CGS-ANG loaded with CGS 26214 at a dose of 60 μg/kg; (9) BNG: mice fed the HFD diet and treated with BNG with the same dose of nanogels with group (8). All the treatments were injected intraperitoneally at the doses indicated once per day before the dark cycle of the day for 5 weeks.
as §3, §4

[6] = Body weight and liver weight in the 12 week and 24 week HFD NASH models; format: in vivo, mice; settings: the two models (12 week and 24 week HFD), i.p. once per day, 5 weeks
Experimental: as §1, with “Diets). […]” for “Diets).”
Body weight and food intake per cage were measured regularly during the study. […]

[7] = 5 μg/kg CGS26214 i.p. once per day
[8] = 10 μg/kg CGS26214 i.p. once per day
[9] = 20 μg/kg CGS26214 i.p. once per day
[10] = 60 μg/kg CGS26214 i.p. once per day

CCOC(=O)C(=O)Nc1cc(C)c(Oc2ccc(O)c(C(O)c3ccc(F)cc3)c2)c(C)c1 (racemic) [CGS26214, ethyl (+−)-((4-(3-((4-fluorophenyl)hydroxymethyl)-4-hydroxyphenoxy)-3,5-dimethylphenyl)amino)oxoacetate]
insulin resistance (HOMA-IR) [1]: not observed to produce a significant effect
change in serum TSH [2]: statistically significant change
ALT [3, 7]: 276 ± 20^d
AST [3, 7]: 319 ± 15^ceg
Cholesterol [3, 7]: 278.9 ± 20.2^cef mg/dL
LDL Cholesterol [3, 7]: 18.4 ± 2.3 mg/dL
ALT [3, 8]: 257 ± 20^cd
Cholesterol [3, 8]: 236.8 ± 16.6^cd mg/dL
HDL Cholesterol [3, 8]: 113.4 ± 5.5^ab mg/dL
LDL Cholesterol [3, 8]: 15.3 ± 1.1 mg/dL
Triglycerides [3, 8]: 94.7 ± 9.5^cdf mg/dL
ALT [3, 9]: 225 ± 10^cd
AST [3, 9]: 247 ± 17^de
Cholesterol [3, 9]: 196.9 ± 10.2^ade mg/dL
HDL Cholesterol [3, 9]: 96.3 ± 3.9^ac mg/dL
LDL Cholesterol [3, 9]: 11.4 ± 1.2 mg/dL
Triglycerides [3, 9]: 90.3 ± 5.7^ad mg/dL
fibrosis and collagen deposition (Masson's trichrome staining) [4]: show signs of fibrosis and collagenous tissue fiber formation
steatosis, inflammation and ballooning degeneration (hematoxylin-eosin staining) [4]: show macrovesicular and microvesicular steatosis, inflammation, and ballooning degeneration
ALT [5, 8]: 196 ± 26
AST [5, 8]: 205 ± 27
Cholesterol [5, 8]: 158.2 ± 19.2 mg/dL
HDL Cholesterol [5, 8]: 87.2 ± 9.6 mg/dL
LDL Cholesterol [5, 8]: <7 mg/dL
Triglycerides [5, 8]: 87.6 ± 3.5 mg/dL
ALT [5, 9]: 217 ± 28
AST [5, 9]: 252 ± 47
Cholesterol [5, 9]: 155.8 ± 11.8 mg/dL
HDL Cholesterol [5, 9]: 76.8 ± 5.8 mg/dL
LDL Cholesterol [5, 9]: <7 mg/dL
Triglycerides [5, 9]: 83.5 ± 10 mg/dL
ALT [5, 10]: 279 ± 68
AST [5, 10]: 303 ± 49
Cholesterol [5, 10]: 105.5 ± 23.7 mg/dL
HDL Cholesterol [5, 10]: 53.1 ± 10.8 mg/dL
LDL Cholesterol [5, 10]: <7 mg/dL
Triglycerides [5, 10]: 78.7 ± 7.2 mg/dL
reversing or preventing changes in biochemical markers induced by the high-fat diet ([5]; summary of Tables 2 and 3 (12 week and 24 week models), compared with LC control): much less effective
effects on body weight [6]: only moderate effects
effects on liver weight [6]: only moderate effects
